A value given as a limit tells only on which side of the number the result lay.

Among the data in patent publication US6855730B2, “3-methylidenyl-2-indolinone modulators of protein kinase” (Sugen, Inc., priority 1998, dated 2005) are IC50 values, retold here.

For one experiment, the target named is T1, PDGFR-β (Homo sapiens, UniProt P09619).
T1 construct: host or cells: NIH 3T3
Description: Biochemical PDGFR assay (ELISA, PDGFR-β expressing NIH 3T3 cell lysate). To be noted: read-out: bio PDGF IC50. The source says:
This assay measures the in vitro kinase activity of PDGFR using ELISA.
Unless otherwise noted, the preparation of working solution-of the following reagents is the same as that for the Biochemical EGFR assay, above. • 1. […] 28D4C10 monoclonal anti-PDGFR antibody (Biochemistry Lab, SUGEN, Inc.). • 3. PBS (Dulbecco's Phosphate-Buffered Saline, Gibco Catalog No. 450-1300EB) • 4. TBST Buffer. • 5. Blocking Buffer. • 6. PDGFR-β expressing NIH 3T3 cell lysate (Screening Lab, SUGEN, Inc.). • 7. TBS Buffer. • 8. TBS+10% DMSO. • 9. […] MnCl2. • 11. Kinase buffer phosphorylation mix.
• 12. NUNC 96-well V bottom polypropylene plates (Applied Scientific Cat. No. AS-72092). • 13. Ethylenediaminetetraacetic acid (EDTA). • 14. Rabbit polyclonal anti-phosphotyrosine serum (Biochemistry Lab, SUGEN, Inc.). • 15. Goat anti-rabbit IgG peroxidase conjugate (Biosource Cat. No. ALI0404). • 16. 2,2′-azino-bis(3-ethylbenzthiazoline-6-sulfonic acid) (ABTS, Sigma Cat. No. A-1888). • 17. Hydrogen peroxide 30% solution (Fisher Cat. No. H325). • 18. ABTS/H2O2. • 19. 0.2 M HCl.
Procedure • 1. Coat Corning 96 well ELISA plates with 0.5 μg 28D4C10 in 100 μl PBS per well, store overnight at 4° C. • 2. Remove unbound 28D4C10 from wells by inverting plate to remove liquid. Wash 1× with dH2O. Pat the plate on a paper towel to remove excess liquid. • 3. Add 150 μl of Blocking Buffer to each well. Incubate for 30 min. at room temperature with shaking. • 4. Wash plate 3× with deionized water, then once with TBST. Pat plate on a paper towel to remove excess liquid and bubbles. • 5. Dilute lysate in HNTG (10 μg lysate/100 μl HNTG) • 6. Add 100 μl of diluted lysate to each well. Shake at room temperature for 60 min. • 7. Wash plates as described in 4, above. • 8. Add 80 μl working kinase buffer mix to ELISA plate containing captured PDGFR. • 9. Dilute test compound 1:10 in TBS in 96-well polypropylene plates (i.e., 10 μl compound+90 μl TBS). • 10. Add 10 μl diluted test compound to ELISA plate. […] Incubate for 30 minutes while shaking at room temperature. • 12. Add 10 μl ATP directly to all wells except negative control well (final well volume should be approximately 100 μl with 20 μM ATP in each well.) Incubate 30 minutes while shaking. • 13. After 30 minutes, stop reaction by adding 10 μl of 200 mM EDTA (pH 8.0) to each well. • 14. Wash 4× with deionized water, twice with TBST. • 15. Add 100 μl anti-phosphotyrosine (1:3000 dilution in TBST) per well. Incubate 30-45 min. at room temperature, with shaking. • 16. Wash as described in 4, above. • 17. Add 100 μl Biosource Goat anti-rabbit IgG peroxidase conjugate (1:2000 dilution in TBST) to each well. Incubate 30 min. at room temperature, with shaking. • 18. Wash as described in 4, above. • 19. Add 100 μl of ABTS/H2O2 solution to each well. • 20. Incubate 10 to 30 minutes with shaking. Remove any bubbles. • 21. If necessary stop reaction with the addition of 100 μl 0.2 M HCl per well. • 22. Read assay on Dynatech MR7000 ELISA reader: test filter: 410 nM, reference filter: 630 nM.
For orientation: In an ELISA, binding on a coated surface is turned into a signal by an enzyme label.

Another experiment addresses EGFR (Homo sapiens, UniProt P00533). Description: Biochemical EGFR assay (ELISA, A431 cell lysate). On the set-up: A431 cell lysate (Screening Lab, SUGEN, Inc.); host or cells: A431. The note with it: read-out: bio EGFr IC50. How it is done:
This assay measures the in vitro kinase activity of EGFR using ELISA.
Materials and Reagents • 1. […] SUMO1 monoclonal anti-EGFR antibody (Biochemistry Lab, SUGEN, Inc.). • 3. PBS (Dulbecco's Phosphate-Buffered Saline, Gibco Catalog No. 450-1300EB). • 4. TBST Buffer
• 6. A431 cell lysate (Screening Lab, SUGEN, Inc.) • 7. TBS Buffer:
Prepare a 1.0 mM solution in dH2O. This reagent should be made up immediately prior to use and kept on ice. • 10. MnCl2.
Prepare a 1.0 M stock solution in dH2O. • 11. ATP/MnCl2 phosphorylation mix
This reagent should be prepared immediately before use and kept on ice. • 12. NUNC 96-well V bottom polypropylene plates (Applied Scientific Cat. No. AS-72092). • 13. Ethylenediaminetetraacetic acid (EDTA)
Prepare 200 mM working solution in dH2O. Adjust to pH 8.0 with 10 N NaOH. • 14. Rabbit polyclonal anti-phosphotyrosine serum (Biochemistry Lab, SUGEN, Inc.) • 15. Goat anti-rabbit IgG peroxidase conjugate (Biosource Cat. No. ALI0404) • 16. ABTS (2,2′-azino-bis(3-ethylbenzthiazoline-6-sulfonic acid), Sigma Cat. No. A-1888).
Mix first two ingredients in about 900 ml dH2O, adjust pH to 4.0 with phosphoric acid. Add ABTS, cover, let sit about 0.5 hr., filter. The solution should be kept in the dark at 4° C. until ready to use. • 17. Hydrogen peroxide 30% solution (Fisher Cat. No. H325) • 18. ABTS/H2O2 • Mix 15 ml ABTS solution and 2.0 μl H2O2. Prepare 5 minutes before use. • 19. 0.2 M HCl
Procedure • 1. Coat Corning 96 well ELISA plates with 0.5 μg SUMO1 in 100 μl PBS per well, store overnight at 4° C. • 2. Remove unbound SUMO1 from wells by inverting plate to remove liquid., Wash 1× with dH2O. Pat the plate on a paper towel to remove excess liquid. • 3. Add 150 μl of Blocking Buffer to each well. Incubate for 30 min. at room temperature with shaking. • 4. Wash plate 3× with deionized water, then once with TBST. Pat plate on a paper towel to remove excess liquid and bubbles. • 5. Dilute lysate in PBS (7 μg lysate/100 μl PBS). • 6. Add 100 μl of diluted lysate to each well. Shake at room temperature for 60 min. • 7. Wash plates as described in 4, above. • 8. Add 120 μl TBS to ELISA plate containing captured EGFR. • 9. Dilute test compound 1:10 in TBS in 96-well polypropylene plates (i.e. 10 μl compound+90 μl TBS). • 10. Add 13.5 μl diluted test compound to ELISA plate. […] Incubate for 30 minutes while shaking at room temperature. • 12. […] After 5 minutes, stop reaction by adding 16.5 μl of 200 mM EDTA (pH 8.0) to each well, shaking continuously. After the EDTA has been added, shake for 1 min. • 14. Wash 4× with deionized water, twice with TBST. • 15. Add 100 μl anti-phosphotyrosine (1:3000 dilution in TBST) per well. Incubate 30-45 min. at room temperature, with shaking. • 16. Wash as described in 4, above. • 17. Add 100 μl Biosource Goat anti-rabbit IgG peroxidase conjugate (1:2000 dilution in TBST) to each well. Incubate 30 min. at room temperature, with shaking. • 18. Wash as described in 4, above. • 19. Add 100 μl of ABTS/H2O2 solution to each well. • 20. Incubate 5 to 10 minutes with shaking. Remove any bubbles. • 21. If necessary stop reaction with the addition of 100 μl 1 0.2 M HCl per well. • 22. Read assay on Dynatech MR7000 ELISA reader. Test Filter: 410 nM Reference Filter: 630 Nm.

T1 sequence (P09619 33-1106): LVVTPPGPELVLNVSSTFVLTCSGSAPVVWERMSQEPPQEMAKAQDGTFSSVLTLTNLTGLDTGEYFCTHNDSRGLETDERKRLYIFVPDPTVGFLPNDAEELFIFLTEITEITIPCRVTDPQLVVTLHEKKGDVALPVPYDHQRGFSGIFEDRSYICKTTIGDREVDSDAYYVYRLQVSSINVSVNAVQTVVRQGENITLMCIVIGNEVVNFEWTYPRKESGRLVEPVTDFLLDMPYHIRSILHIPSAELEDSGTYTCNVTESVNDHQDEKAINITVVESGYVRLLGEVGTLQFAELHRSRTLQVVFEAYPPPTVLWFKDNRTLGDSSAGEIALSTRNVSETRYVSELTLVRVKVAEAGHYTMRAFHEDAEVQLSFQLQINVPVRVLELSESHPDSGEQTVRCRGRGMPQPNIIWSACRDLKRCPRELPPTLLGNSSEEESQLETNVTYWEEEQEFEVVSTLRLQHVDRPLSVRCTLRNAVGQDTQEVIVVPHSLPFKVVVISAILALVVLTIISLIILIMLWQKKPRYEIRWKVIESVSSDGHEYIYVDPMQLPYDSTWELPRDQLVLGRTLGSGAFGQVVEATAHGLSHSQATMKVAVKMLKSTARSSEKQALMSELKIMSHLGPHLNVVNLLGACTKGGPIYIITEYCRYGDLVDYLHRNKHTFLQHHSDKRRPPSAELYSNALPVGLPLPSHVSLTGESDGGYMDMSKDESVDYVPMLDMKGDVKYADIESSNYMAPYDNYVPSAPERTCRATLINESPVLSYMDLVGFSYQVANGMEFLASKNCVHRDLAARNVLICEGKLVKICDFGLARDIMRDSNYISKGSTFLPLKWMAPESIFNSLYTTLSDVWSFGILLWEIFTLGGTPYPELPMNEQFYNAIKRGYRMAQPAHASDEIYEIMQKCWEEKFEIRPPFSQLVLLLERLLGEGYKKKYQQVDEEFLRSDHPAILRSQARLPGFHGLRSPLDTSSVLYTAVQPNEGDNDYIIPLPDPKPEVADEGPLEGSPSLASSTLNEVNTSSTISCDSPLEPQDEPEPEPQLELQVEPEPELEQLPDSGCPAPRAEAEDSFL
EGFR, sequence (P00533 25-1210): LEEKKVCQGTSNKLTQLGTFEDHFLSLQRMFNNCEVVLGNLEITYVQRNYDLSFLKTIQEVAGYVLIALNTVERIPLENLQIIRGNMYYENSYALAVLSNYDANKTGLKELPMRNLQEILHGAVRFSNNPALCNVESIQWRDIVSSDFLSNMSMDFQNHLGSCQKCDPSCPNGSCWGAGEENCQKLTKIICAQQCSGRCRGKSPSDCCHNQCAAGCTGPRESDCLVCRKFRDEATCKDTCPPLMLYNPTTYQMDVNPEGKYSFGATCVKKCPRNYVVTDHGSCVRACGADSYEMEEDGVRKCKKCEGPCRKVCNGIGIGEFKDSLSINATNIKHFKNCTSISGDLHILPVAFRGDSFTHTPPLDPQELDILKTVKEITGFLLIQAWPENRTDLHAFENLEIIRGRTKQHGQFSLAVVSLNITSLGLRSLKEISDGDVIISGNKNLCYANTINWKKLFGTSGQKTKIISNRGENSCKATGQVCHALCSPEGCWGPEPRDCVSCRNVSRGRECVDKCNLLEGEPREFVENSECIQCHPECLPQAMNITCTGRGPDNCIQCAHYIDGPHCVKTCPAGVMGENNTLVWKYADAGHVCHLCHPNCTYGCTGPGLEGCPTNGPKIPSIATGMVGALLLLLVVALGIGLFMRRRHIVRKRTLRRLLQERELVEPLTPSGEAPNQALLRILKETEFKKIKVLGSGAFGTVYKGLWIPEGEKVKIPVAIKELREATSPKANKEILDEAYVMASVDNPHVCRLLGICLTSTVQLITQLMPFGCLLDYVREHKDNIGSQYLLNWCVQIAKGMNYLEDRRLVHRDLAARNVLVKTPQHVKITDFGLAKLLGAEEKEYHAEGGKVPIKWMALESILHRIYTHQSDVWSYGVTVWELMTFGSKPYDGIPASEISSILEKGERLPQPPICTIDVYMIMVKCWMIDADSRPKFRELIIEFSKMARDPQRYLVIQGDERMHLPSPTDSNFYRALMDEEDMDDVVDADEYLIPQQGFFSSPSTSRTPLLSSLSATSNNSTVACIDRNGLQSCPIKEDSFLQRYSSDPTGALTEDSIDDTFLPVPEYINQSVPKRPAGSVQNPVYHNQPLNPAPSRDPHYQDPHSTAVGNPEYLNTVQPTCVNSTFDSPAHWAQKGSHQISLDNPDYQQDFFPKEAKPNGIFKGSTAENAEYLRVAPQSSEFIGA

The IC50 is the point on the concentration scale where inhibition reaches its midpoint. `O=C(O)CCc1c(C=C2C(=O)Nc3cc(N4CCOCC4)ccc32)[nH]c2c1CCCC2` [Example 209, 3-[2-(6-Morpholin-4-yl-2-oxo-1,2-dihydroindol-3-ylidenemethyl)-4,5,6,7-tetrahydro-1H-indol-3-yl]-propionic acid]: the values for the IC50 at PDGFR-β and on EGFR were 84.6 µM and above 100 µM, respectively.

As for `CCOC(=O)c1c(C)[nH]c(/C=C2\C(=O)Nc3ccc(C(=O)O)cc32)c1CCCN(C)C` [Example 134, 3-[3-(3-Dimethylaminopropyl)-4-ethoxycarbonyl-5-methyl-1H-pyrrol-2-ylmethylene]-2-oxo-2,3-dihydro-1H-indole-5-carboxylic acid], the 50% inhibitory concentration (IC50) at PDGFR-β was found to be 4.88 µM.

Regarding `CCOC(=O)c1c(C)[nH]c(/C=C2\C(=O)Nc3ccc(OC)cc32)c1CCCN1CCCC1` [Example 127, 5-(5-Methoxy-2-oxo-1,2-dihydroindol-3-ylidenemethyl)-2-methyl-4-(3-pyrrolidin-1-ylpropyl)-1H-pyrrole-3-carboxylic acid ethyl ester], the IC50 on PDGFR-β was found to be 0.96 µM.

For the compound `CCOC(=O)c1c(C)[nH]c(/C=C2\C(=O)Nc3cccc(CCO)c32)c1CCCN(C)C` [Example 135, 4-(3-Dimethylaminopropyl)-5-[4-(2-hydroxyethyl)-2-oxo-1,2-dihydroindol-3-ylidenemethyl]-2-methyl-1H-pyrrole-3-carboxylic acid ethyl ester], the IC50 at PDGFR-β stood at 0.5 µM; at EGFR, 0.19 µM.

`CCOC(=O)c1c(C)[nH]c(/C=C2\C(=O)Nc3ccc(C(=O)O)cc32)c1CCCN1CCCC1` [Example 128, 3-[4-Ethoxycarbonyl-5-methyl-3-(3-pyrrolidin-1-ylpropyl)-1H-pyrrol-2-ylmethylene]-2oxo-2,3-dihydro-1H-indole-5-carboxylic acid]: the IC50 at PDGFR-β worked out at 17.1 µM.

On to `CCOC(=O)c1c(C)[nH]c(/C=C2\C(=O)Nc3ccc(C(=O)O)cc32)c1CCCN1CCOCC1` [Example 125, 3-[4-Ethoxycarbonyl-5-methyl-3-(3-morpholin-4-ylpropyl)-1H-pyrrol-2-ylmethylene]-2-oxo-2,3-dihydro-1H-indole-5-carboxylic acid], for which, on PDGFR-β, the IC50 was 5.73 µM.

Take `CCOC(=O)c1c(C)[nH]c(/C=C2\C(=O)Nc3ccc(C(=O)O)cc32)c1CCCN1CCN(C)CC1` [Compound 129, 3-{4-Ethoxycarbonyl-5-methyl-3-(3-(4-methyl-piperazin-1-yl)-propyl]-1H-pyrrol-2-ylmethylene)-2-oxo-2,3-dihydro-1H-indole-5-carboxylic acid]: at PDGFR-β, the IC50 worked out at 31.7 µM.
